Measured values published in patent US20230100844A1, “IBOGAINE COMBINATION TREATMENT” (ATAI Life Sciences AG, priority 2021, published 2023).
Read-outs that look alike come from different tables or passages of the source.

Columns and labels:
[1] = in vivo; cited from earlier work
[2] = target: T1, CYP2D6 (Homo sapiens, UniProt P10635); conditions: humans; cited from earlier work
T1 construct: host or cells: human subjects (endogenous enzyme of gut wall and liver)

[3] = cited from earlier work
[4] = single oral administration, humans; cited from earlier work
[5] = cited from earlier work; for plasma exposures with chronic paroxetine: CYP2D6 extensive metabolizers, paroxetine 10-20 mg, single ibogaine 20 mg (about 0.3 mg/kg); for time out to which ibogaine plasma exposures are detectable: single ibogaine 20 mg
[6] = in vivo; cited from earlier work; remark: listed apart in the source
[7] = oral administration; cited from earlier work
[8] = animals, meta-analysis; cited from earlier work
[9] = single oral 8-12 mg/kg HCl; cited from earlier work
[10] = Nonclinical proof-of-concept PD study: drug self-administration after CYP2D6 inhibitor plus ibogaine; assay type: in vivo, rats and/or nonhuman primates; conditions: single dose CYP2D6 inhibitor followed by single dose ibogaine
Protocol: Nonclinical proof-of-concept PD studies (rats and/or nonhuman primates):
Dose(s) of CYP2D6 inhibitor based on prior PK studies in the same species are tested. Intravenous drug self-administration studies involve training the animal to emit a response (e.g., lever press) for a non-drug reinforcer (e.g., food) under specific stimulus conditions in the test chamber. Then, the animal undergoes aseptic surgery to place a chronically indwelling intravenous cannula that is connected to a drug infusion system within the test chamber. After surgical recovery, the stimulus conditions in the test chamber now signal the availability of a drug reinforcer (e.g., morphine or cocaine), and lever pressing results in an intravenous infusion of the available drug during daily session. For studies of oral self-administration (e.g., ethanol), animals are trained to self-administer the drug using a lever paradigm (e.g., in which pressing of the lever results in delivery of the drug solution into a drinking cup) or a two-bottle choice […] paradigm (e.g., in which animals are allowed to drink for 24 hours from one bottle containing a drug solution or another bottle containing water). During a test session, vehicle or a dose of CYP2D6 inhibitor is administered prior to a dose of ibogaine and then, responses on the drug-associated lever or the volume of drug solution consumed are measured.

[11] = single oral 10 mg/kg ibogaine, cited from earlier work

T1 sequence (P10635 whole entry): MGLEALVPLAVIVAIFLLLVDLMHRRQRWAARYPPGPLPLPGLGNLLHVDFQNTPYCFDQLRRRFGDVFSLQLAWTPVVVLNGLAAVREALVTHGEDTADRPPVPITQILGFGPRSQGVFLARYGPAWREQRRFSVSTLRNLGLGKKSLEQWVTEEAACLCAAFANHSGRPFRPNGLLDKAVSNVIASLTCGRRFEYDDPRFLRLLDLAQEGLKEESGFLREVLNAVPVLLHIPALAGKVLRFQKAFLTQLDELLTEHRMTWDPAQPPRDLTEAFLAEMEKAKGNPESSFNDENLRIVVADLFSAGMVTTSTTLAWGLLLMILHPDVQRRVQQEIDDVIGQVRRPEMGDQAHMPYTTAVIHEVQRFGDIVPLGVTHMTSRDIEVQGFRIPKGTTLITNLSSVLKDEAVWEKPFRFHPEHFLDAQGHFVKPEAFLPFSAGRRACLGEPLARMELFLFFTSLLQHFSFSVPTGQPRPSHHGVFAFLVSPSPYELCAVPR

CNCCC(Oc1ccc(C(F)(F)F)cc1)c1ccccc1 (stereo not shown) [Fluoxetine, fluoxetine]
half-life [1]: long half-life (days)

C=C[C@H]1C[N@@]2CC[C@H]1C[C@@H]2[C@@H](O)c1ccnc2ccc(OC)cc12 [Quinidine, quinidine]
in vivo CYP2D6 inhibition [2]: can inhibit the metabolism of the CYP2D6 substrate debrisoquine in vivo

CC(NC(C)(C)C)C(=O)c1cccc(Cl)c1 (stereo not shown) [bupropion]
single-dose half-life ([3]; single dose): 10 to 15 h

C[C@H]1NC(C)(C)CO[C@]1(O)c1cccc(Cl)c1 [hydroxybupropion]
half-life of metabolite ([3]; bupropion metabolites that also inhibit CYP2D6): 22 to 25 h

CCC1CC2CC3c4[nH]c5ccc(OC)cc5c4CCN(C2)C13 (stereo not shown) [ibogaine, Ibogaine]
time blood concentrations were detectable [4]: about 24 h | time to peak blood concentration [4]: peaked within a couple of hours | plasma exposures with chronic paroxetine [5]: increased plasma exposures | time out to which ibogaine plasma exposures are detectable ([5]; chronic paroxetine 10-20 mg): 72 h | time out to which ibogaine plasma exposures are detectable ([5]; chronic placebo treatment): < 4 h | time within which visualizations and perceptual changes subside [6]: 6 to 8 h | cardiac QT interval [7]: associated with cardiac QT interval prolongation | self-administration of drugs (opiates, cocaine, ethanol) [8]: reduced self-administration of several drugs | opioid withdrawal signs, craving and mood [9]: reduced opioid withdrawal signs and craving and increased mood | therapeutic-like effects (reduction of drug self-administration) with CYP2D6 inhibitor pretreatment [10]: increases ibogaine's therapeutic-like effects | absorbed ibogaine eliminated by 24 hours post dose ([11]; CYP2D6 extensive metabolizers): > 90% | exposure in CYP2D6 poor metabolizers compared to extensive metabolizers [11]: modestly increased

CC[C@H]1C[C@H]2C[C@H]3c4[nH]c5ccc(O)cc5c4CCN(C2)[C@@H]13 [noribogaine]
time blood concentrations were detectable [4]: detectable for a longer duration | time to peak blood concentration [4]: peaked later | plasma exposures with chronic paroxetine [5]: decreased plasma exposures | Cmax in blood ([11]; CYP2D6 extensive metabolizers): in the same range as the parent drug | concentrations at 24 hours ([11]; CYP2D6 extensive metabolizers): remained elevated | exposure in CYP2D6 poor metabolizers compared to extensive metabolizers [11]: markedly decreased
